Data as given in patent US10947188B2, “Small molecule ferroptosis inducers” (THE TRUSTEES OF COLUMBIA UNIVERSITY IN THE CITY OF NEW YORK, priority 2016, dated 2021).

Legend:
[1] = Cobalt (II) binding assay in vitro (absorbance spectrum); conditions: absorbance 300-700 nm
Experimental: For each cluster I compound (CIL13, −52, and −64), prepared two-fold dilution series with DMSO. We added 30 μL per well of either water or 10 μM cobalt (II) chloride solution to each well of a 384-well plate. Dilution series of each compound in DMSO were added by 10 μL per well. After solutions had been mixed by shaking of the plate using a Victor 3 plate reader (PerkinElmer), absorbance was scanned between 300 and 700 nm for each compound. Finally the following Absorbance value for each compound was plotted (see FIG. 9B):
[formula] where Abs is the absorbance at each wavelength. Search of Commercially Available Structural Analogs of CIL41/70.

GPX4 = target: T1, GPX4 (Homo sapiens, UniProt P36969); test: GPX4 enzymatic activity assay in lysates of treated cells (LC-MS); assay type: cell-based; conditions: BJeLR; 5 μM FIN56 for 10 h
T1 construct: Cells were sonicated to make cell lysates that were then cleared by centrifugation; endogenous in cells; host or cells: BJeLR cells (lysate of compound-treated cells)
T1 sequence (P36969 1-197): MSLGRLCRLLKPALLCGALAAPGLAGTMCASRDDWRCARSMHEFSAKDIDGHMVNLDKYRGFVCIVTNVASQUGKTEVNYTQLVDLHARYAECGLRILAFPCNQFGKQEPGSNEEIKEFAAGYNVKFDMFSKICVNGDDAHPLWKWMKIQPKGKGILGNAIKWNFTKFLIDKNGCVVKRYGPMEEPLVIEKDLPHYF
Experimental: Seeded 17 million BJeLR cells in 225-cm^2 tissue culture flasks (Corning). We then added vehicle (0.1% DMSO for 11 h) or test compound (10 μM erastin for 11 h, 0.5 μM (1S,3R)-RSL3 for 2 h, or 5 μM FIN56 for 10 h). The GPX4 enzymatic activity assay was performed as described previously (Yang et al. 2014). Briefly, 10 million cells were resuspended in cell lysis buffer. Cells were sonicated to make cell lysates that were then cleared by centrifugation at 14,000 r.p.m. for 10 min. The protein concentration of the cleared cell lysates was determined via Bradford protein assay. Mixed 200 μg of cellular protein with phosphatidyl choline hydroperoxide, a GPX4-specific substrate, and reduced glutathione, a GPX4 cofactor. The mixture was incubated at 37° C. for 30 min and then subjected to lipid extraction using chloroform:methanol (2:1) solution. The lipid extract was evaporated using a Rotavap and re-dissolved in 100% ethanol before being injected into the LC-MS instrument for 2-linoleoyl1-palmitoyl-sn-glycero-3-phosphocholine (PLPC) quantitation.

143B cells = test: FIN56 lethality in 143B cells with or without mitochondrial DNA; assay type: cell-based; conditions: ρ+ or ρ0 cells
From the text: CoQ10 is an electron carrier in the mitochondrial respiratory chain and an endogenous antioxidant. However, whether it functions in the regulation of ferroptosis via either of these mechanisms remains to be elucidated. […] Thus, exactly how CoQ10 protects cells from FIN56 remains elusive, but the process may involve reprogramming of lipid metabolism in a way that is not conducive to the execution of ferroptosis, or a specific antioxidant action distinct from that of α-tocopherol.

GPX1 = test: Western blotting of GPX1 protein abundance; assay type: cell-based, human; conditions: BJeLR; FIN56 5 μM, 10 h
Experimental: Seeded 300,000 cells (HT-1080 or BJeLR) per well in six-well plates. For cotreatment, ferroptosis inducers (10 μM erastin for 11 h, 0.5 μM (1S, 3R)-RSL3 for 2 h, or 5 μM FIN56) and 100 μM α-tocopherol were added to cell culture at the same time, and cells were then incubated for 10 h (FIG. 2E). When other death-modulating compounds (100 nM sodium selenite, 1 μM cerivastatin, 100 μg/mL mevalonic acid, 30 μM C75, or 2 μM cerulenin) were used in cotreatments, cells were pre-incubated with the modulators for 24 h before being treated with ferroptosis inducers for 6 h. Cell lysis, SDS-PAGE and protein transfer to PVDF membrane were performed as previously described (Dixon et al. 2012). We used the following antibodies: anti-human α-tubulin (Santa Cruz Biotechnology, sc-32293, 1:10,000 dilution), anti-human GPX4 (Abcam, ab41787, 1:2,000 dilution), anti-human GPX1 (R&D Systems, AF3798, 1:1,000 dilution), and anti-human SQS (Abcam, ab109723 for full-length, ab195046 for truncated, both at 1:1,000 dilution). Secondary antibodies were from LI-COR (1:3,000 dilution). The PVDF membranes labeled with primary and secondary antibodies were scanned using an Odyssey Imaging System (LI-COR). Experiments were performed in biological triplicates, and the mean±s.e. of intensity was plotted.

HT-1080 cells = test: Flow cytometry of intracellular Ca(II) levels (Fluo-4); assay type: cell-based; conditions: 2 μM FIN56; over the course of 9 h
From the text: The third compound set examined was suppressors of both ferroptosis and necrosis. These were predicted to target three proteins: alpha-1 (α1) adrenergic receptors 1B and 1D and calmodulin 3. Activation of α1 activates phospholipase C and increases Ca(II). Calmoduline 3 is a calcium-binding protein. Since all three proteins are relevant to calcium signaling, we hypothesized that calcium mediates FIN56-induced ferroptosis.

NCI60 cell line panel = test: Cell-line selectivity in the NCI60 cell line panel; assay type: cell-based
From the text: Previously reported ferroptosis inducers either deplete glutathione (by inhibiting cystine uptake) or are covalent GPX4 inhibitors.

GPX4 transcripts = test: Reverse-transcription quantitative PCR of GPX4 transcripts; assay type: cell-based; conditions: 5 μM FIN56
Experimental: Trypsinized 0.2 to 1 million cells grown in six-well dishes, pelleted them, resuspended them in Buffer RLT (Qiagen), and homogenized them with QlAshredder (Qiagen). RNA was further extracted using the RNeasy Mini Kit (Qiagen). We converted 2 μg of extracted RNA from each sample into cDNA using TaqMan reverse-transcription reagents (Life Technologies). qPCR primers were designed to detect all splicing variants using Primer Express 2.0 (Applied Biosystems). The designed primers were confirmed to amplify only the designated gene transcripts using in silico PCR (see, e.g., http://genome.ucsc.edu/cgi-bin/hgPcr). For qPCR reactions, primers, cDNA, and Power SYBR Green PCR Master Mix (Applied Biosystems) were mixed, and quantitation was performed using a StepOnePlus real-time PCR system (Applied Biosystems). Experiments were done in biological triplicates.

SMILES	binding to cobalt (II) in vitro [1]	GPX4 activity in cell lysates (GPX4)	sensitivity of 143B cells with or without mitochondrial DNA (143B cells)	abundance of GPX1 protein (GPX1)	intracellular Ca(II) levels (Fluo-4) (HT-1080 cells)	cell-line selectivity pattern in NCI60 (NCI60 cell line panel)	GPX4 transcript level (GPX4 transcripts)
Cc1cccnc1Nc1nc(-c2ccccn2)cs1 [CIL13]	bound to cobalt (II) in vitro						
O=S(=O)(NC1CCCCC1)c1ccc2c(c1)C(=NO)c1cc(S(=O)(=O)NC3CCCCC3)ccc1-2 [FIN56, N2,N7-dicyclohexyl-9-(hydroxyimino)-9H-fluorene-2,7-disulfonamide]		loss of GPX4 activity	both sensitive to FIN56-induced ferroptosis	but not that of the related selenoprotein GPX1, was substantially decreased	increased intracellular Ca(II) levels	more similar to other GPX4 inhibitors than to GSH-depleting compounds	increased, rather than decreased
